Laboratory results as given in patent US20190270733A1, “Quinoline and Isoquinoline Based HDAC Inhibitors and Methods of Use Thereof” (Reaction Biology Corp., priority 2018, published 2019).
pIC50: −log10 of the molar value.

Molecular target: T1, Complex of human HDAC3 and human NCOR2 (Homo sapiens, UniProt O15379)
T1 construct: full-length with a C-terminal His tag; His tag (C); made in house
Experiment: Biochemical HDAC assay, HDAC3
Conditions: incubation time 10 min
Method: Complex of human HDAC3 (GenBank Accession No. NM_003883), full-length with a C-terminal His tag, MW=49.7 kDa, and human NCOR2 (amino acid 395-489) (GenBank Accession No. NM_006312), N-terminal GST tag, MW=37.6 kDa, was co-expressed in a baculovirus expression system.
• I. Compound handling: Testing compounds were dissolved in 100% DMSO to a specific concentration. The serial dilution was conducted by epMotion 5070 in DMSO. • II. HDAC reaction buffer: 50 mM Tris-HCl, pH8.0, 137 mM NaCl, 2.7 mM KCl, and 1 mM MgCl2, Added fresh: 1 mg/ml BSA, 1% DMSO. • III. Substrate: Fluorogenic HDAC General Substrate for HDAC1, 2, 3, 6, 10, 11 ans Sirt1, 2 and 3: Arg-His-Lys-Lys(Ac); HDAC8 only substrate: Arg-His-Lys(Ac)-Lys(Ac); Class2A Substrate (HDAC4, 5, 7 and 9): Acetyl-Lys(trifluoroacetyl)-AMC; Sirt5 substrate: Ac-Lys(succinyl)-AMC. • IV. General Reaction Procedure: (Standard IC50 determination) • a. Delivered 2× enzyme in wells of reaction plate except No Enzyme (No En) control wells. Add buffer in No En wells. • b. Delivered compounds in 100% DMSO into the enzyme mixture by Acoustic technology (Echo550; nanoliter range). Spin down and pre-incubation. • c. Delivered 2× Substrate Mixture (Fluorogenic HDAC Substrate and co-factor (500 μM of Nicotinamide adenine dinucleotide (NAD^+) in all Sirt assay) in all reaction wells to initiate the reaction. Spin and shake. • d. Incubated for 1-2 hr. at 30° C. with seal. • e. Added Developer with Trichostatin A (or TMP269 or NAD^+) to stop the reaction and to generate fluorescent color. • f. Fluorescence was read (excitatory, 360; emission, 460) using the EnVision Multilabel Plate Reader (Perkin Elmer) • g. Endpoint reading was taken for analysis after the development reaches plateau. • V. Data Analysis: The percentages of enzyme activity (relative to DMSO controls) and IC50 values were calculated using the GraphPad Prism 4 program based on a sigmoidal dose-response equation.
Compounds with indicated doses was tested in the biochemical assays of HDAC1, HDAC2, HDAC3, HDAC4, HDAC5, HDAC6, HDAC7, HDAC8, HDAC9, HDAC10, or HDAC11 enzyme. The incubation time in HDAC1/2 assays are 120 min, and that for other HDACs are 10 min. The curve fit and IC50 values were calculated using the GraphPad Prism 4 program based on a sigmoidal dose-response equation.

T1 sequence (O15379 whole entry): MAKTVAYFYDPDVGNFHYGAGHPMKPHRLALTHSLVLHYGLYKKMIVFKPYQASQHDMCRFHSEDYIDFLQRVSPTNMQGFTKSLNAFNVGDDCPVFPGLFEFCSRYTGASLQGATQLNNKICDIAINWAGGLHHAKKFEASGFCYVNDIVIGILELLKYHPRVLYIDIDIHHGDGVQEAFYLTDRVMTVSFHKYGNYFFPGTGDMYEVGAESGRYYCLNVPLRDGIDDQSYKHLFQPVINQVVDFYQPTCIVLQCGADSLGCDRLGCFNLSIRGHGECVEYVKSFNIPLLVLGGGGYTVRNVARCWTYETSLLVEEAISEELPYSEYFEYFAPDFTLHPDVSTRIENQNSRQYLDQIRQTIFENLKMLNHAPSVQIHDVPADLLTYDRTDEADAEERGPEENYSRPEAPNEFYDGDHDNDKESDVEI
T1 sequence (Q9Y618 395-489 partner limits assumed): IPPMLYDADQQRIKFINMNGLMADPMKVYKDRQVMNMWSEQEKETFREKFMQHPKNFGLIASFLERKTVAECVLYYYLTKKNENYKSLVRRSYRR

Nc1ccc(-c2cccs2)cc1NC(=O)c1ccc2c(c1)CCC(=O)N2 [Example 5, N-(2-amino-5-(thiophen-2-yl)phenyl)-2-oxo-1,2,3,4-tetrahydroquinoline-6-carboxamide]
pIC50: < 5.00
